What was measured:
[1] = target: Human immunodeficiency virus type 1 reverse transcriptase (Human immunodeficiency virus 1, UniProt Q72547, Y188L); test: Inhibitory activity against HIV-1 Y188L reverse transcriptase.
[2] = target: Human immunodeficiency virus type 1 reverse transcriptase (Human immunodeficiency virus 1, UniProt Q72547); test: Inhibitory activity against HIV-1 wild-type reverse transcriptase.
[3] = target: Human immunodeficiency virus type 1 reverse transcriptase (Human immunodeficiency virus 1, UniProt Q72547, K103N); test: Inhibitory activity against HIV-1 Mutant Reverse transcriptase K103N
[4] = target: Human immunodeficiency virus type 1 reverse transcriptase (Human immunodeficiency virus 1, UniProt Q72547, V106A); test: Inhibitory activity against HIV-1 Mutant Reverse transcriptase V106A
[5] = target: Human immunodeficiency virus type 1 reverse transcriptase (Human immunodeficiency virus 1, UniProt Q72547, Y181C); test: Inhibitory activity against HIV-1 Y181C reverse transcriptase.
[6] = target: Human immunodeficiency virus type 1 reverse transcriptase (Human immunodeficiency virus 1, UniProt Q72547, P236L); test: Inhibitory activity against HIV-1 Mutant Reverse transcriptase P236L
[7] = target: Human immunodeficiency virus type 1 reverse transcriptase (Human immunodeficiency virus 1, UniProt Q72547, G190A); test: Inhibitory activity against HIV-1 Mutant Reverse transcriptase G190A
[8] = tested on: C8166; test: Inhibitory activity against HIV-1 IIIB replication in C8166 cells.; assay type: functional, cell-based; details: Homo sapiens

Row | Structure (SMILES) | IC50 [1] [nM] | IC50 [2] [nM] | IC50 [5] [nM] | also measured
1 | CCN1c2ncc(CCc3cccc(N)c3)cc2C(=O)N(C)c2ccc(Cl)nc21 | 250 | 120 | 230 | IC50 [3]: 10 nM; IC50 [4]: 90 nM; IC50 [6]: 40 nM; IC50 [7]: 10 nM
2 | CCN1c2ncc(CCc3ccnc(C)c3)cc2C(=O)N(C)c2ccc(Cl)nc21 | > 1000 | 60 | 140 | –
3 | CCN1c2ncc(CO)cc2C(=O)N(C)c2cccnc21 | – | 50 | 740 | –
4 | CCN1c2ncc(-c3cccc(OC)c3)cc2C(=O)N(C)c2cccnc21 | – | > 1000 | > 1000 | –
5 | CCN1c2ncc(/C=C\c3ccccc3)cc2C(=O)N(C)c2cccnc21 | – | 250 | 580 | –
6 | CCN1c2ncc(CCc3ccncc3)cc2C(=O)N(C)c2ccc(F)nc21 | 250 | 50 | 80 | IC50 [3]: 20 nM; IC50 [4]: 250 nM; IC50 [6]: 50 nM; IC50 [7]: 60 nM
7 | CCN1c2ncc(CCCO)cc2C(=O)N(C)c2cccnc21 | – | 300 | 2900 | –
8 | CCN1c2ncc(CCc3cccc(NC(N)=O)c3)cc2C(=O)N(C)c2ccc(Cl)nc21 | 230 | 60 | 80 | IC50 [8]: 39 nM
9 | CCN1c2ncc(C)cc2C(=O)N(C)c2cccnc21 | – | 750 | > 1000 | –
10 | CCN1c2ncc(CCc3cncnc3)cc2C(=O)N(C)c2cccnc21 | > 1000 | 540 | > 1000 | –
11 | CCN1c2ncc(CCc3ccccc3)cc2C(=O)N(C)c2cccnc21 | – | 50 | 130 | –
12 | CCN1c2ncc(CCC(=O)OC)cc2C(=O)N(C)c2cccnc21 | – | 90 | 140 | –
13 | CCN1c2ncc(CCc3ccc(C)cc3)cc2C(=O)N(C)c2ccc(Cl)nc21 | > 1000 | 230 | 1180 | –
14 | CCN1c2ncc(CCc3ccc(NS(C)(=O)=O)cc3)cc2C(=O)N(C)c2ccc(Cl)nc21 | > 1000 | 330 | 560 | –
15 | CCN1c2ncc(CCc3ccc4ccccc4c3)cc2C(=O)N(C)c2ccc(F)nc21 | > 1000 | 20 | 30 | –
16 | CCN1c2ncc(CCc3ccnc(C(=O)OC)c3)cc2C(=O)N(C)c2ccc(Cl)nc21 | 6000 | 150 | 480 | –
17 | CCN1c2ncc(CCc3cccnc3)cc2C(=O)N(C)c2cccnc21 | > 1000 | 130 | 320 | –
18 | CCN1c2ncc(CCc3cccc(N)c3)cc2C(=O)N(C)c2cccnc21 | > 1000 | 40 | 70 | –
19 | CCN1c2ncc(CCc3ccncc3)cc2C(=O)N(C)c2ccc(C#N)nc21 | > 1000 | 460 | 290 | –
20 | CCN1c2ncc(CCc3ccccn3)cc2C(=O)N(C)c2cccnc21 | > 1000 | 190 | > 1000 | –
21 | CCN1c2ncc(CCc3cccc(C)c3)cc2C(=O)N(C)c2ccc(Cl)nc21 | > 1000 | 110 | 460 | –
22 | CCN1c2ncc(CCc3ccccc3)cc2C(=O)N(C)c2ccc(Cl)nc21 | – | – | – | IC50 [8]: 12 nM
23 | CCN1c2ncc(CCc3cccc(F)c3)cc2C(=O)N(C)c2cccnc21 | > 1000 | 120 | 370 | –
24 | CCN1c2ncc(CCc3ccccc3N)cc2C(=O)N(C)c2cccnc21 | > 1000 | 80 | 1700 | –
25 | CCN1c2ncc(CCc3ccccc3)cc2C(=O)N(C)c2ccc(C3=CCC=N3)nc21 | 1280 | 590 | 520 | –
26 | CCN1c2ncc(CCc3ccnc(C)c3)cc2C(=O)N(C)c2cccnc21 | > 1000 | 30 | 90 | –
27 | CCN1c2ncc(CCC(N)=O)cc2C(=O)N(C)c2cccnc21 | – | 620 | 6100 | –
28 | CCN1c2ncc(N)cc2C(=O)N(C)c2cccnc21 | – | 100 | – | –

Row | Structure (SMILES) | IC50 [1] [nM] | IC50 [2] [nM] | IC50 [5] [nM] | also measured
29 | CCN1c2ncc(CCc3ccnc(C(=O)O)c3)cc2C(=O)N(C)c2ccc(Cl)nc21 | > 1000 | 1500 | 3800 | –
30 | CCN1c2ncc(CCc3ccc4ccccc4c3)cc2C(=O)N(C)c2ccc(Cl)nc21 | > 1000 | 1020 | 2880 | –
31 | CCN1c2ncc(CCc3ccc(C)cc3)cc2C(=O)N(C)c2cccnc21 | > 1000 | 100 | 250 | –
32 | CCN1c2ncc(CCC#N)cc2C(=O)N(C)c2cccnc21 | – | 210 | 2160 | –
33 | CCN1c2ncc(Cc3ccccc3)cc2C(=O)N(C)c2cccnc21 | – | 120 | 1200 | –
34 | CCN1c2ncc(CCc3cccc(N=[N+]=[N-])c3)cc2C(=O)N(C)c2ccc(Cl)nc21 | > 1000 | 80 | 160 | –
35 | CCN1c2ncc(CCc3ccncc3)cc2C(=O)N(C)c2ccc(I)nc21 | 430 | 90 | 180 | –
36 | CCN1c2ncc(CCc3cccc(C)c3)cc2C(=O)N(C)c2cccnc21 | > 1000 | 110 | 280 | –
37 | CCN1c2ncc(CCc3ccncc3)cc2C(=O)N(C)c2cccnc21 | > 1000 | 30 | 110 | IC50 [8]: 25 nM
38 | CCN1c2ncc(CCc3ccccc3C)cc2C(=O)N(C)c2cccnc21 | > 1000 | 200 | 1600 | –
39 | CCN1c2ncc(CCc3ccncc3)cc2C(=O)N(C)c2ccc(Cl)nc21 | – | – | – | IC50 [8]: 9 nM
40 | CCN1c2ncc(CCO)cc2C(=O)N(C)c2cccnc21 | – | 430 | 2500 | –
41 | CCN1c2ncc(CCc3ccc(N)cc3)cc2C(=O)N(C)c2cccnc21 | > 1000 | 60 | 200 | –
42 | CCN1c2ncc(CCc3ccnc(CO)c3)cc2C(=O)N(C)c2ccc(Cl)nc21 | > 1000 | 160 | 280 | –
43 | CCN1c2ncc(CCc3cccc(NS(C)(=O)=O)c3)cc2C(=O)N(C)c2ccc(Cl)nc21 | > 1000 | 140 | 140 | –
44 | CCN1c2ncc(/C=C/C(=O)OC)cc2C(=O)N(C)c2cccnc21 | – | > 1000 | – | –
45 | CCN1c2ncc(CCc3nccs3)cc2C(=O)N(C)c2cccnc21 | > 1000 | 40 | 440 | –
46 | CCN1c2ncc(CCc3ccccc3C)cc2C(=O)N(C)c2ccc(Cl)nc21 | > 1000 | > 1000 | > 1000 | –
47 | CCN1c2ncc(C(=O)O)cc2C(=O)N(C)c2cccnc21 | – | > 1000 | – | –
48 | CCN1c2ncc(CCc3ccnc(C(N)=O)c3)cc2C(=O)N(C)c2ccc(Cl)nc21 | 4000 | 50 | 250 | –
49 | CCN1c2ncc(CCCc3ccccc3)cc2C(=O)N(C)c2cccnc21 | – | 120 | 1170 | –
50 | CCN1c2ncc(CCc3ccc(N)cc3)cc2C(=O)N(C)c2ccc(Cl)nc21 | > 1000 | 160 | 360 | –
51 | CCN1c2ncccc2C(=O)N(C)c2cccnc21 | – | 90 | – | –
52 | CCN1c2ncc(NC(N)=O)cc2C(=O)N(C)c2cccnc21 | – | 1100 | – | –
53 | CCN1c2ncc(CCc3ccc4ccccc4c3)cc2C(=O)N(C)c2cccnc21 | > 1000 | 80 | 150 | –
54 | CCN1c2ncc(Cl)cc2C(=O)N(C)c2cccnc21 | – | 540 | > 1000 | –
55 | CCN1c2ncc(/C=C/c3ccncc3)cc2C(=O)N(C)c2cccnc21 | – | 3000 | > 1000 | –

Source: ChEMBL document CHEMBL1131047, “Novel nonnucleoside inhibitors of HIV-1 reverse transcriptase. 7. 8-Arylethyldipyridodiazepinones as potent broad-spectrum inhibitors of wild-type and mutant enzymes” (J Med Chem, 1998)
